Laboratory results from the NIST ThermoML archive (doi:10.1016/j.fluid.2012.03.005).
Numbers after ± are expanded uncertainties.

Conditions: for surface tension liquid-gas: Pendant drop shape; for mass density: 101.33 kPa, Liquid, Vibrating tube method

CCCCCCCCCCCCCC[P+](CCCCCC)(CCCCCC)CCCCCC.[Br-] [tetradecyltrihexylphosphonium bromide]
Conditions | mass density [kg/m3] | surface tension liquid-gas [mN/m]
293.15 K | 961.7 ± 5 | 29.97 ± 0.81
297.15 K | 959.2 ± 5 | –
298.15 K | 958.6 ± 5 | 29.32 ± 0.79
301.15 K | 956.7 ± 5 | –
303.15 K | 955.5 ± 4.9 | 28.94 ± 0.78
305.15 K | 954.3 ± 4.9 | –
308.15 K | 952.4 ± 4.9 | 28.53 ± 0.77
309.15 K | 951.8 ± 4.9 | –
313.15 K | 949.3 ± 4.9 | 28.15 ± 0.76
317.15 K | 946.9 ± 4.9 | –
318.15 K | 946.2 ± 4.9 | 27.81 ± 0.75
321.15 K | 944.4 ± 4.8 | –
323.15 K | 943.1 ± 4.8 | 27.46 ± 0.75
325.15 K | 941.9 ± 4.8 | –
328.15 K | 940.1 ± 4.8 | 27.12 ± 0.74
329.15 K | 939.4 ± 4.8 | –
333.15 K | 937 ± 4.8 | 26.78 ± 0.73
337.15 K | 934.6 ± 4.7 | –
338.15 K | 934 ± 4.7 | 26.57 ± 0.72
341.15 K | 932.1 ± 4.7 | –
343.15 K | 930.9 ± 4.7 | 26.24 ± 0.71
345.15 K | 929.7 ± 4.7 | –
